In ChEMBL document CHEMBL5653615 (J Biol Chem, 2013):

Tests used:
[1] = molecular target: T1, cGMP-dependent protein kinase 1 (Homo sapiens) (UniProt Q13976); assay: Inhibition of human PKG1b at 18.6 nM by HotSpot assay relative to control
T1 sequence (whole entry): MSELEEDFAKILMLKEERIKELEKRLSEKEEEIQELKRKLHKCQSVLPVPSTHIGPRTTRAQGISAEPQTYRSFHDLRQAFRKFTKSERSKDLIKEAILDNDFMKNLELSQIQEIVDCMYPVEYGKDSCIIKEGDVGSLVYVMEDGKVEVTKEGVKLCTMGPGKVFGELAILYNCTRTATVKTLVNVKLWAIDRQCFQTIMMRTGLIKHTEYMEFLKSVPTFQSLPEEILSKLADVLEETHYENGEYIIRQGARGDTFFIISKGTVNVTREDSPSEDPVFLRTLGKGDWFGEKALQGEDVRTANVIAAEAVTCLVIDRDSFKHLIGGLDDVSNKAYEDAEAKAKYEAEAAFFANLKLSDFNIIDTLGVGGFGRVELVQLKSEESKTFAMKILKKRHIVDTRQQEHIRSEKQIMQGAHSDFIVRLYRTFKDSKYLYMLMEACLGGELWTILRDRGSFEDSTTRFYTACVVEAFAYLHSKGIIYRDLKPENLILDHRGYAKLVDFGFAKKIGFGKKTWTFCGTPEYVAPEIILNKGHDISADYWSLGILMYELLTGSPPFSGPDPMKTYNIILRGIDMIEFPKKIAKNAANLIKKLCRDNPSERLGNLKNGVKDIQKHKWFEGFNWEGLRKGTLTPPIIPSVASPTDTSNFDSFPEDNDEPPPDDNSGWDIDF

[2] = molecular target: T2, Serine/threonine-protein kinase haspin (Homo sapiens) (UniProt Q8TF76); assay: Inhibition of human Haspin at 1.82 nM by HotSpot assay relative to control
T2 sequence (whole entry): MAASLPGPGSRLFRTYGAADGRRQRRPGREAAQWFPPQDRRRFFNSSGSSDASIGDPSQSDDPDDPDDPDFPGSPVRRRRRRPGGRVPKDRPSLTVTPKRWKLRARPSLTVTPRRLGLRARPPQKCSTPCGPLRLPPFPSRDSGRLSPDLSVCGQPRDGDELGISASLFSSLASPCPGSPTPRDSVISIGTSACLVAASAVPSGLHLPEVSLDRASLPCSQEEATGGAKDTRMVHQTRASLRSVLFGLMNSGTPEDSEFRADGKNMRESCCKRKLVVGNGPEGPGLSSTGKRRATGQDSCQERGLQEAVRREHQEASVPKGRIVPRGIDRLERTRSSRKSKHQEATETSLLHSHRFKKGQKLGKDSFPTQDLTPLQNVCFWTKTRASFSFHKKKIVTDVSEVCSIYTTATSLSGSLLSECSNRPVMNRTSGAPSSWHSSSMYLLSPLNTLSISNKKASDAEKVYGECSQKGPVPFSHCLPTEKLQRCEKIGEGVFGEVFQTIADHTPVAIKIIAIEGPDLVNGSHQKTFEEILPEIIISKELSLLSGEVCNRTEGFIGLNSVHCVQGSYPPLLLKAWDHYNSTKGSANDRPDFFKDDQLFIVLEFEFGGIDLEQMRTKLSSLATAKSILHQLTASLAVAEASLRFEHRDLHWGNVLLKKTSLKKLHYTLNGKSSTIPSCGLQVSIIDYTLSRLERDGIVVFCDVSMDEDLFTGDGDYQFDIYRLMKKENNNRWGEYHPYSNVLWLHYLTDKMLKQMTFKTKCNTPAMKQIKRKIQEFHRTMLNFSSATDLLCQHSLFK

[3] = molecular target: T3, Serine/threonine-protein kinase Sgk3 (Homo sapiens) (UniProt Q96BR1); assay: Inhibition of human SGKL at 1.82 nM by HotSpot assay relative to control
T3 sequence (whole entry): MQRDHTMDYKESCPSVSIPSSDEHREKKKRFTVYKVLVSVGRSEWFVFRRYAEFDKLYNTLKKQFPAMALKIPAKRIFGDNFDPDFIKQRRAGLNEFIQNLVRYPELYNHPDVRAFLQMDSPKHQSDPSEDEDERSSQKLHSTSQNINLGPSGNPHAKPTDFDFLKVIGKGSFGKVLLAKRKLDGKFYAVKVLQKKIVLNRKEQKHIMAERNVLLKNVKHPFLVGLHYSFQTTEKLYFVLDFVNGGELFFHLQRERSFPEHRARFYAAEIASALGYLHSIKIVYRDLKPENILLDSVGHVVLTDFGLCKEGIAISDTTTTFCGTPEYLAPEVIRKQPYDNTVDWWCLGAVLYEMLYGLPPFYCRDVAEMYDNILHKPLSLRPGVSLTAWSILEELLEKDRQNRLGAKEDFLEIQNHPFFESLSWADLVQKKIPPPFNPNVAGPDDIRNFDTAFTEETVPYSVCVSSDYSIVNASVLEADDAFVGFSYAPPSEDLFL

[4] = molecular target: T4, Inhibitor of nuclear factor kappa-B kinase subunit alpha (Homo sapiens) (UniProt O15111); details: dose 1.82 nM
T4 sequence (whole entry): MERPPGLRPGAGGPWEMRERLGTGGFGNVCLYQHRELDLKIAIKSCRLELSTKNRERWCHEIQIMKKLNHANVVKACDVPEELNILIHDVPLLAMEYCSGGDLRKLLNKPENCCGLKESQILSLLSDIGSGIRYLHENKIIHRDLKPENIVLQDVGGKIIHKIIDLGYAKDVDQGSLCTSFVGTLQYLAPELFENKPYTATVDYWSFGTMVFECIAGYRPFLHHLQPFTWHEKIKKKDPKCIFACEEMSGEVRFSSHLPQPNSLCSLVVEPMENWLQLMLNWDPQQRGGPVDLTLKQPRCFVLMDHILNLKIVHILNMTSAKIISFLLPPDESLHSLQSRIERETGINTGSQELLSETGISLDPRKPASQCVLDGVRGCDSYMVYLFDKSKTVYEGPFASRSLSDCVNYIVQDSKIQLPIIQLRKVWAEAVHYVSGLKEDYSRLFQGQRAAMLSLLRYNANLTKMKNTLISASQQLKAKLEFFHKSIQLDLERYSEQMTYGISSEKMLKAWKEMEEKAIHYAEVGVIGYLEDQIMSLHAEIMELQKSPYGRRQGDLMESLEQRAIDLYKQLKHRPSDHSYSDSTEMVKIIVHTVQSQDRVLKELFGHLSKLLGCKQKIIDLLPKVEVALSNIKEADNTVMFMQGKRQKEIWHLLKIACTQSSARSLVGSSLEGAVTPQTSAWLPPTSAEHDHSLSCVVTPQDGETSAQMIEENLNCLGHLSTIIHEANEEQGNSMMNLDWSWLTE
Description: Inhibition of human IKKa at 1.82 nM by HotSpot assay relative to control

SMILES	inhibition [1] [%]	inhibition [2] [%]	inhibition [3] [%]	inhibition [4] [%]
C[C@]1(O)C[C@@H](c2nc(-c3ccc4ccc(-c5ccccc5)nc4c3)c3c(N)nccn32)C1	-6.35	–	–	–
C[C@@]1(C(=O)Nc2ccc(F)nc2)CCCN1c1nc(Nc2cc(C3CC3)n[nH]2)c2cccn2n1	–	-1.25	-2.25	3.74
